Data taken from PubChem BioAssay AID1259407 (Chemical Carcinogenesis Research Information System (CCRIS), 2018).
Active and inactive are the calls of the source. How the calls were made is not given here.

Tested on: CCRIS mutagenicity, Ames/micronucleus/aberration tests
Test: CCRIS mutagenicity studies
[1] = Test System: AMES SALMONELLA TYPHIMURIUM, Strain/Indicator: TA98, Metabolic Activation: NONE, Method: PREINCUBATION
[2] = Test System: AMES SALMONELLA TYPHIMURIUM, Strain/Indicator: TA100, Metabolic Activation: NONE, Method: PREINCUBATION
[3] = Test System: AMES SALMONELLA TYPHIMURIUM, Strain/Indicator: TA1535, Metabolic Activation: NONE, Method: PREINCUBATION
[4] = Test System: AMES SALMONELLA TYPHIMURIUM, Strain/Indicator: TA1537, Metabolic Activation: NONE, Method: PREINCUBATION

**Q.** Which results are given for CN1CCC[C@H]1c1cccnc1?
**A.** mutagenic call (End Point: IN VITRO MICRONUCLEUS, Test System: HUMAN GINGIVAL FIBROBLASTS, Metabolic Activation: NONE): active; positive; mutagenic call (End Point: In vivo micronucleus, Test System: Bone marrow polychromatic erythrocytes, Species: Mouse, Strain/Sex: Swiss/Female, Route: Oral): inactive; negative; mutagenic call (Test System: AMES SALMONELLA TYPHIMURIUM, Strain/Indicator: TA97, Metabolic Activation: NONE, Method: STANDARD PLATE): inactive; negative; mutagenic call (Test System: AMES SALMONELLA TYPHIMURIUM, Strain/Indicator: TA97, Metabolic Activation: RAT, LIVER, S-9, AROCLOR 1254, Method: STANDARD PLATE): inactive; negative; mutagenic call [1]: inactive; negative; mutagenic call (Test System: AMES SALMONELLA TYPHIMURIUM, Strain/Indicator: TA98, Metabolic Activation: NONE, Method: STANDARD PLATE): inactive; negative; mutagenic call (Test System: AMES SALMONELLA TYPHIMURIUM, Strain/Indicator: TA98, Metabolic Activation: RAT, LIVER, S-9, AROCLOR 1254 (5%), Method: PREINCUBATION): inactive; negative; mutagenic call (Test System: AMES SALMONELLA TYPHIMURIUM, Strain/Indicator: TA98, Metabolic Activation: RAT, LIVER, S-9, AROCLOR 1254, Method: STANDARD PLATE): inactive; negative; mutagenic call [2]: inactive; negative; mutagenic call (Test System: AMES SALMONELLA TYPHIMURIUM, Strain/Indicator: TA100, Metabolic Activation: NONE, Method: STANDARD PLATE): inactive; negative; mutagenic call (Test System: AMES SALMONELLA TYPHIMURIUM, Strain/Indicator: TA100, Metabolic Activation: RAT, LIVER, S-9, AROCLOR 1254 (5%), Method: PREINCUBATION): inactive; negative; mutagenic call (Test System: AMES SALMONELLA TYPHIMURIUM, Strain/Indicator: TA100, Metabolic Activation: RAT, LIVER, S-9, AROCLOR 1254, Method: STANDARD PLATE): inactive; negative; mutagenic call [3]: inactive; negative; mutagenic call (Test System: AMES SALMONELLA TYPHIMURIUM, Strain/Indicator: TA1535, Metabolic Activation: RAT, LIVER, S-9, AROCLOR 1254 (5%), Method: PREINCUBATION): inactive; negative; mutagenic call [4]: inactive; negative; mutagenic call (Test System: AMES SALMONELLA TYPHIMURIUM, Strain/Indicator: TA1537, Metabolic Activation: RAT, LIVER, S-9, AROCLOR 1254 (5%), Method: PREINCUBATION): inactive; negative; mutagenic call (Test System: AMES SALMONELLA TYPHIMURIUM, Strain/Indicator: TA1538, Metabolic Activation: NONE, Method: PREINCUBATION): inactive; negative; mutagenic call (Test System: AMES SALMONELLA TYPHIMURIUM, Strain/Indicator: TA1538, Metabolic Activation: RAT, LIVER, S-9, AROCLOR 1254 (5%), Method: PREINCUBATION): inactive; negative

**Q.** CCCCN(CC)CC was tested. Which mutagenic call (Test System: AMES SALMONELLA TYPHIMURIUM, Strain/Indicator: TA97, Metabolic Activation: HAMSTER, LIVER, S-9, AROCLOR 1254 (10 OR 30%), Method: PREINCUBATION) did it give?
**A.** The mutagenic call was “inactive; negative”.

**Q.** And the mutagenic call (Test System: AMES SALMONELLA TYPHIMURIUM, Strain/Indicator: TA97, Metabolic Activation: NONE, Method: PREINCUBATION)?
**A.** The mutagenic call was “inactive; negative”.

**Q.** What about the mutagenic call (Test System: AMES SALMONELLA TYPHIMURIUM, Strain/Indicator: TA97, Metabolic Activation: RAT, LIVER, S-9, AROCLOR 1254 (10 OR 30%), Method: PREINCUBATION) of the same compound?
**A.** Its mutagenic call is “inactive; negative”.

**Q.** What about the mutagenic call (Test System: AMES SALMONELLA TYPHIMURIUM, Strain/Indicator: TA98, Metabolic Activation: HAMSTER, LIVER, S-9, AROCLOR 1254 (10 OR 30%), Method: PREINCUBATION) of the same compound?
**A.** The mutagenic call was “inactive; negative”.

**Q.** What about the mutagenic call [1] of the same compound?
**A.** The mutagenic call was “inactive; negative”.

**Q.** What about the mutagenic call (Test System: AMES SALMONELLA TYPHIMURIUM, Strain/Indicator: TA98, Metabolic Activation: RAT, LIVER, S-9, AROCLOR 1254 (10 OR 30%), Method: PREINCUBATION) of the same compound?
**A.** The mutagenic call was “inactive; negative”.

**Q.** And the mutagenic call (Test System: AMES SALMONELLA TYPHIMURIUM, Strain/Indicator: TA100, Metabolic Activation: HAMSTER, LIVER, S-9, AROCLOR 1254 (10 OR 30%), Method: PREINCUBATION)?
**A.** Its mutagenic call is “inactive; negative”.

**Q.** And the mutagenic call [2]?
**A.** The mutagenic call was “inactive; negative”.

**Q.** And the mutagenic call (Test System: AMES SALMONELLA TYPHIMURIUM, Strain/Indicator: TA100, Metabolic Activation: RAT, LIVER, S-9, AROCLOR 1254 (10 OR 30%), Method: PREINCUBATION)?
**A.** The mutagenic call was “inactive; negative”.

**Q.** What about the mutagenic call (Test System: AMES SALMONELLA TYPHIMURIUM, Strain/Indicator: TA1535, Metabolic Activation: HAMSTER, LIVER, S-9, AROCLOR 1254 (10 OR 30%), Method: PREINCUBATION) of the same compound?
**A.** The mutagenic call was “inactive; negative”.

**Q.** What about the mutagenic call [3] of the same compound?
**A.** Its mutagenic call is “inactive; negative”.

**Q.** What about the mutagenic call (Test System: AMES SALMONELLA TYPHIMURIUM, Strain/Indicator: TA1535, Metabolic Activation: RAT, LIVER, S-9, AROCLOR 1254 (10 OR 30%), Method: PREINCUBATION) of the same compound?
**A.** The mutagenic call was “inactive; negative”.

**Q.** Which results are given for C=CC(=O)OCC(CO)(COC(=O)C=C)COC(=O)C=C?
**A.** mutagenic call (End Point: In vivo micronucleus, Test System: Peripheral blood normochromatic erythrocytes, Species: Mouse, Strain/Sex: B6C3F1/Female): inactive; negative; mutagenic call (End Point: In vivo micronucleus, Test System: Peripheral blood normochromatic erythrocytes, Species: Mouse, Strain/Sex: B6C3F1/Male, Route: Dermal): inactive; negative; mutagenic call (End Point: In vivo micronucleus, Test System: Peripheral blood normochromatic erythrocytes, Species: Mouse, Strain/Sex: FVB.N/TgN (v-Ha-ras) Tg.AC hemizygous/Female, Route: Dermal): active; positive; mutagenic call (End Point: In vivo micronucleus, Test System: Peripheral blood normochromatic erythrocytes, Species: Mouse, Strain/Sex: FVB.N/TgN (v-Ha-ras) Tg.AC hemizygous/Male, Route: Dermal): inactive; negative (described as equivocal by ntp); mutagenic call (Test System: AMES SALMONELLA TYPHIMURIUM, Strain/Indicator: TA98, Metabolic Activation: HAMSTER, LIVER, S-9, AROCLOR 1254 (10%), Method: PREINCUBATION): inactive; negative; mutagenic call [1]: inactive; negative; mutagenic call (Test System: AMES SALMONELLA TYPHIMURIUM, Strain/Indicator: TA98, Metabolic Activation: RAT, LIVER, S-9, AROCLOR 1254 (10%), Method: PREINCUBATION): inactive; negative; mutagenic call (Test System: AMES SALMONELLA TYPHIMURIUM, Strain/Indicator: TA100, Metabolic Activation: HAMSTER, LIVER, S-9, AROCLOR 1254 (10%), Method: PREINCUBATION): inactive; negative; mutagenic call [2]: inactive; negative; mutagenic call (Test System: AMES SALMONELLA TYPHIMURIUM, Strain/Indicator: TA100, Metabolic Activation: RAT, LIVER, S-9, AROCLOR 1254 (10%), Method: PREINCUBATION): inactive; negative; mutagenic call (Test System: AMES SALMONELLA TYPHIMURIUM, Strain/Indicator: TA1535, Metabolic Activation: HAMSTER, LIVER, S-9, AROCLOR 1254 (10%), Method: PREINCUBATION): inactive; negative; mutagenic call [3]: inactive; negative; mutagenic call (Test System: AMES SALMONELLA TYPHIMURIUM, Strain/Indicator: TA1535, Metabolic Activation: RAT, LIVER, S-9, AROCLOR 1254 (10%), Method: PREINCUBATION): inactive; negative; mutagenic call (Test System: AMES SALMONELLA TYPHIMURIUM, Strain/Indicator: TA1537, Metabolic Activation: HAMSTER, LIVER, S-9, AROCLOR 1254 (10%), Method: PREINCUBATION): inactive; negative; mutagenic call [4]: inactive; negative; mutagenic call (Test System: AMES SALMONELLA TYPHIMURIUM, Strain/Indicator: TA1537, Metabolic Activation: RAT, LIVER, S-9, AROCLOR 1254 (10%), Method: PREINCUBATION): inactive; negative; mutagenic call (Test System: MOUSE LYMPHOMA, Strain/Indicator: L5178Y (TK+/TK-), Metabolic Activation: NONE, Method: SUSPENSION/PLATE): active; positive

**Q.** How did the mutagenic call (Test System: UDS RAT HEPATOCYTES, Strain/Indicator: THY INCORP, Metabolic Activation: NONE) turn out when C[N+](C)(C)CC1CO1 (stereo not drawn) was run?
**A.** Its mutagenic call is “active; positive”.

**Q.** For Cc1cc2nc3c(ccc4ccccc43)c(C)c2cc1C, which mutagenic call (Test System: AMES SALMONELLA TYPHIMURIUM, Strain/Indicator: TA97A, Metabolic Activation: NONE, Method: PREINCUBATION) is on record?
**A.** Its mutagenic call is “active; positive”.

**Q.** What about the mutagenic call [1] of the same compound?
**A.** The mutagenic call was “inactive; negative”.

**Q.** What about the mutagenic call [2] of the same compound?
**A.** The mutagenic call was “inactive; negative”.

**Q.** And the mutagenic call (Test System: AMES SALMONELLA TYPHIMURIUM, Strain/Indicator: TA102, Metabolic Activation: NONE, Method: PREINCUBATION)?
**A.** Its mutagenic call is “active; positive”.

**Q.** [S]=[Pb] was tested. Which mutagenic call (Test System: CHINESE HAMSTER V-79, Strain/Indicator: V-79/6-THIOGUANINE, Metabolic Activation: NONE, Method: STANDARD PLATE) did it give?
**A.** The mutagenic call was “active; positive”.
